Measurements published in ChEMBL document CHEMBL5370591, “A Potent and Narrow-Spectrum Antibacterial against Clostridioides difficile Infection” (J Med Chem, 2023).
≈ marks a conversion by molar mass, not a printed value.

Key:
Klebsiella pneumoniae = test: Antibacterial activity against Klebsiella pneumoniae ATCC700603 assessed as inhibition of bacterial growth by broth microdilution method; format: functional
Bacillus licheniformis = test: Antibacterial activity against Bacillus licheniformis ATCC 12759 assessed as inhibition of bacterial growth by broth microdilution method; format: functional
Escherichia coli = test: Antibacterial activity against Escherichia coli ATCC25922 assessed as inhibition of bacterial growth by broth microdilution method; format: functional
Enterococcus faecalis [1] = test: Antibacterial activity against vancomycin susceptible Enterococcus faecalis 201 assessed as inhibition of bacterial growth by broth microdilution method; format: functional
Clostridioides difficile [2] = test: Antibacterial activity against Clostridium difficile NR49292 assessed as inhibition of bacterial growth by broth microdilution method; format: functional
Enterococcus faecium [3] = test: Antibacterial activity against vancomycin resistant Enterococcus faecium 106 assessed as inhibition of bacterial growth by broth microdilution method; format: functional
Clostridioides difficile [4] = test: Antibacterial activity against Clostridium difficile 26675 assessed as inhibition of bacterial growth by broth microdilution method; format: functional
Clostridioides difficile [5] = test: Antibacterial activity against Clostridium difficile NR49302 assessed as inhibition of bacterial growth by broth microdilution method; format: functional
Veillonella = test: Antibacterial activity against Veillonella HM-49 assessed as inhibition of bacterial growth by broth microdilution method; format: functional
Klebsiella aerogenes = test: Antibacterial activity against Klebsiella aerogenes ATCC35029 assessed as inhibition of bacterial growth by broth microdilution method; format: functional
Enterococcus faecium [6] = test: Antibacterial activity against vancomycin susceptible Enterococcus faecium119-39A assessed as inhibition of bacterial growth by broth microdilution method; format: functional; settings: 119-39A
Streptococcus pyogenes = test: Antibacterial activity against Streptococcus pyogenes ATCC 49399 assessed as inhibition of bacterial growth by broth microdilution method; format: functional
Staphylococcus aureus [7] = test: Antibacterial activity against Staphylococcus aureus NRS100 assessed as inhibition of bacterial growth by broth microdilution method; format: functional
Clostridioides difficile [8] = test: Antibacterial activity against Clostridium difficile ATCC 43255 assessed as inhibition of bacterial growth by broth microdilution method; format: functional
[9] = test system: Staphylococcus epidermidis; test: Antibacterial activity against Staphylococcus epidermidis ATCC 35547 assessed as inhibition of bacterial growth by broth microdilution method; format: functional
Bifidobacterium longum = test: Antibacterial activity against Bifidobacterium longum HM-846 assessed as inhibition of bacterial growth by broth microdilution method; format: functional
Staphylococcus aureus [10] = test: Antibacterial activity against Staphylococcus aureus NRS120 assessed as inhibition of bacterial growth by broth microdilution method; format: functional
[11] = test system: Staphylococcus haemolyticus; test: Antibacterial activity against Staphylococcus haemolyticus ATCC 29970 assessed as inhibition of bacterial growth by broth microdilution method; format: functional
Clostridioides difficile [12] = test: Antibacterial activity against Clostridium difficile NR49294 assessed as inhibition of bacterial growth by broth microdilution method; format: functional
Enterococcus faecalis [13] = test: Antibacterial activity against vancomycin resistant Enterococcus faecalis 99 assessed as inhibition of bacterial growth by broth microdilution method; format: functional
Clostridioides difficile [14] = test: Antibacterial activity against Clostridium difficile 24531 assessed as inhibition of bacterial growth by broth microdilution method; format: functional
Bacteroides fragilis = test: Antibacterial activity against Bacteroides fragilis HM-709 assessed as inhibition of bacterial growth by broth microdilution method; format: functional
Staphylococcus aureus [15] = test: Antibacterial activity against Staphylococcus aureus NRS119 assessed as inhibition of bacterial growth by broth microdilution method; format: functional
Staphylococcus aureus [16] = test: Antibacterial activity against vancomycin-resistant Staphylococcus aureus clinical isolate 1 assessed as inhibition of bacterial growth by broth microdilution method; format: functional
Staphylococcus aureus [17] = test: Antibacterial activity against Staphylococcus aureus ATCC 27660 assessed as inhibition of bacterial growth by broth microdilution method; format: functional
Clostridioides difficile [18] = test: Antibacterial activity against Clostridium difficile 23828 assessed as inhibition of bacterial growth by broth microdilution method; format: functional
THP-1 = test: Cytotoxicity against human THP-1 cells assessed as increase in LDH release incubate for 24 hrs by trypan-blue staining based analysis; format: functional, cell-based; settings: THP-1, 24 h
Enterococcus faecium [19] = test: Antibacterial activity against Enterococcus faecium NCTC 7171 assessed as inhibition of bacterial growth by broth microdilution method; format: functional
Enterococcus faecalis [20] = test: Antibacterial activity against Enterococcus faecalis ATCC 29212 assessed as inhibition of bacterial growth by broth microdilution method; format: functional
Lactobacillus gasseri = test: Antibacterial activity against Lactobacillus gasseri HM-644 assessed as inhibition of bacterial growth by broth microdilution method; format: functional
Staphylococcus aureus [21] = test: Antibacterial activity against vancomycin-resistant Staphylococcus aureus clinical isolate 2 assessed as inhibition of bacterial growth by broth microdilution method; format: functional
Acinetobacter baumannii = test: Antibacterial activity against Acinetobacter baumannii ATCC17961 assessed as inhibition of bacterial growth by broth microdilution method; format: functional
Clostridioides difficile [22] = test: Antibacterial activity against Clostridium difficile BAA-1870 assessed as inhibition of bacterial growth by broth microdilution method; format: functional
Streptococcus oralis = test: Antibacterial activity against Streptococcus oralis ATCC 9811 assessed as inhibition of bacterial growth by broth microdilution method; format: functional
[23] = test system: Limosilactobacillus reuteri; test: Antibacterial activity against Lactobacillus reuteri HM-102 assessed as inhibition of bacterial growth by broth microdilution method; format: functional
Staphylococcus aureus [24] = test: Antibacterial activity against Staphylococcus aureus ATCC 29213 assessed as inhibition of bacterial growth by broth microdilution method; format: functional
Clostridioides difficile [25] = test: Antibacterial activity against Clostridium difficile NR49318 assessed as inhibition of bacterial growth by broth microdilution method; format: functional
Bacillus cereus = test: Antibacterial activity against Bacillus cereus ATCC 13061 assessed as inhibition of bacterial growth by broth microdilution method; format: functional
Fusobacterium nucleatum = test: Antibacterial activity against Fusobacterium nucleatum HM-992 assessed as inhibition of bacterial growth by broth microdilution method; format: functional
Clostridioides difficile [26] = test: Antibacterial activity against Clostridium difficile NR49305 assessed as inhibition of bacterial growth by broth microdilution method; format: functional
Eubacterium sp. = test: Antibacterial activity against Eubacterium sp. HM-178 assessed as inhibition of bacterial growth by broth microdilution method; format: functional
Pseudomonas aeruginosa = test: Antibacterial activity against Pseudomonas aeruginosa ATCC27853 assessed as inhibition of bacterial growth by broth microdilution method; format: functional
Clostridioides difficile [27] = test: Antibacterial activity against Clostridium difficile NR49310 assessed as inhibition of bacterial growth by broth microdilution method; format: functional

`Oc1ccc(-c2nc(-c3ccc(OC4CCCC4)cc3)no2)cc1` was tested. Which MIC (Klebsiella pneumoniae) did it give?
Its MIC is greater than 128 µg/mL.

And the MIC (Bacillus licheniformis)?
Its MIC is 4 µg/mL (≈ 12.4 µM).

What about the MIC (Escherichia coli) of the same compound?
Its MIC is greater than 128 µg/mL.

What about the MIC (Enterococcus faecalis [1]) of the same compound?
The MIC was 4 µg/mL (≈ 12.4 µM).

What about the MIC (Clostridioides difficile [2]) of the same compound?
Its MIC is 2 µg/mL (≈ 6.2 µM).

And the MIC (Enterococcus faecium [3])?
The MIC was 2 µg/mL (≈ 6.2 µM).

What about the MIC (Clostridioides difficile [4]) of the same compound?
Its MIC is 4 µg/mL (≈ 12.4 µM).

What about the MIC (Clostridioides difficile [5]) of the same compound?
Its MIC is 2 µg/mL (≈ 6.2 µM).

And the MIC (Veillonella)?
Its MIC is greater than 128 µg/mL.

And the MIC (Klebsiella aerogenes)?
The MIC was greater than 128 µg/mL.

What about the MIC (Enterococcus faecium [6]) of the same compound?
The MIC was 2 µg/mL (≈ 6.2 µM).

And the MIC (Streptococcus pyogenes)?
Its MIC is greater than 128 µg/mL.

And the MIC (Staphylococcus aureus [7])?
Its MIC is 1 µg/mL (≈ 3.1 µM).

And the MIC (Clostridioides difficile [8])?
Its MIC is 2 µg/mL (≈ 6.2 µM).

And the MIC [9]?
Its MIC is 2 µg/mL (≈ 6.2 µM).

What about the MIC (Bifidobacterium longum) of the same compound?
The MIC was 1 µg/mL (≈ 3.1 µM).

What about the MIC (Staphylococcus aureus [10]) of the same compound?
The MIC was 2 µg/mL (≈ 6.2 µM).

What about the MIC [11] of the same compound?
The MIC was 2 µg/mL (≈ 6.2 µM).

What about the MIC (Clostridioides difficile [12]) of the same compound?
The MIC was 2 µg/mL (≈ 6.2 µM).

What about the MIC (Enterococcus faecalis [13]) of the same compound?
The MIC was 4 µg/mL (≈ 12.4 µM).

What about the MIC (Clostridioides difficile [14]) of the same compound?
The MIC was 4 µg/mL (≈ 12.4 µM).

And the MIC (Bacteroides fragilis)?
The MIC was 2 µg/mL (≈ 6.2 µM).

What about the MIC (Staphylococcus aureus [15]) of the same compound?
The MIC was 1 µg/mL (≈ 3.1 µM).

What about the MIC (Staphylococcus aureus [16]) of the same compound?
Its MIC is 2 µg/mL (≈ 6.2 µM).

And the MIC (Staphylococcus aureus [17])?
The MIC was 2 µg/mL (≈ 6.2 µM).

And the MIC (Clostridioides difficile [18])?
Its MIC is 4 µg/mL (≈ 12.4 µM).

What about the IC50 (THP-1) of the same compound?
Its IC50 is 18 µg/mL (≈ 55.8 µM).

And the MIC (Enterococcus faecium [19])?
Its MIC is 4 µg/mL (≈ 12.4 µM).

What about the MIC (Enterococcus faecalis [20]) of the same compound?
Its MIC is 4 µg/mL (≈ 12.4 µM).

And the MIC (Lactobacillus gasseri)?
The MIC was greater than 128 µg/mL.

What about the MIC (Staphylococcus aureus [21]) of the same compound?
Its MIC is 2 µg/mL (≈ 6.2 µM).

And the MIC (Acinetobacter baumannii)?
Its MIC is greater than 128 µg/mL.

What about the MIC (Clostridioides difficile [22]) of the same compound?
Its MIC is 2 µg/mL (≈ 6.2 µM).

And the MIC (Streptococcus oralis)?
Its MIC is greater than 128 µg/mL.

And the MIC [23]?
The MIC was greater than 128 µg/mL.

What about the MIC (Staphylococcus aureus [24]) of the same compound?
The MIC was 2 µg/mL (≈ 6.2 µM).

And the MIC (Clostridioides difficile [25])?
Its MIC is 4 µg/mL (≈ 12.4 µM).

And the MIC (Bacillus cereus)?
Its MIC is 2 µg/mL (≈ 6.2 µM).

And the MIC (Fusobacterium nucleatum)?
Its MIC is 2 µg/mL (≈ 6.2 µM).

And the MIC (Clostridioides difficile [26])?
The MIC was 2 µg/mL (≈ 6.2 µM).

What about the MIC (Eubacterium sp.) of the same compound?
Its MIC is 4 µg/mL (≈ 12.4 µM).

What about the MIC (Pseudomonas aeruginosa) of the same compound?
Its MIC is greater than 128 µg/mL.

And the MIC (Clostridioides difficile [27])?
Its MIC is 4 µg/mL (≈ 12.4 µM).
